Results published in article PMC9026428, “New Peptide Based Fluconazole Conjugates with Expanded Molecular Targets” (Pharmaceutics, 2022).
Non-standard residues stand in square brackets, D forms with d. Residues, ends and D or L forms follow the SMILES beside them. *: point of attachment. X1 = O=C(CCCC(=O)*)OC(Cn1cncn1)(Cn1cncn1)c1ccc(F)cc1F; Nle = CCCC[C@H](N)C(=O)O

What was measured:
Assay in all cases: microbe, parasite or virus in culture
[1] = system: Candida albicans 138; details: C. albicans 138 (fluconazole-resistant clinical isolate), RPMI 1640/MOPS pH 7.0, 24 h, 37 °C, triplicate; for MIC50: at least 50% growth inhibition vs growth control; for MIC90: lowest concentration with no visible growth
Method: (§1) The assessment of antifungal potential of synthesized agents was carried out using four reference strains (C. albicans ATCC 10231, C. albicans SC5314, C. glabrata DSM […] and C. krusei DSM […]) and six clinical isolates of fluconazole-resistant C. albicans that were provided by the Hospital of Medical University of Gdansk, Poland. Moreover, four C. albicans isolates, assigned as B3, B4, Gu4 and Gu5, were used for investigation whether the synthesized fluconazole derivatives were effectively removed from the yeast cells by the drug efflux transporters, as in the case of fluconazole. These strains were kindly provided by Prof. Joachim Morschhäuser from University of Würzburg (Würzburg, Germany). Strains Gu4 and B3 were fluconazole-sensitive isolates obtained from early infection episodes, while Gu5 and B4 were the corresponding fluconazole-resistant isolates obtained from later episodes in the same patients treated with fluconazole. The lack of susceptibility of the Gu5 strain to fluconazole was a consequence of overexpression of CDR1/2 genes encoding ABC transporters, whereas the resistance of B4 strain was caused by overexpression of the MDR1 gene encoding a membrane transport protein of the major facilitator superfamily (MFS). All of these Candida spp. strains were maintained on YPD agar plates (1% (w/v) yeast extract, 2% (w/v) peptone, 2% (w/v) glucose, 2% (w/v) agar) at 30 °C for 16–24 h. For all of the assays aimed at assessing the antifungal potential of the synthesized agents, the yeasts were cultivated at 37 °C in RPMI 1640 medium (with L-glutamine, without sodium bicarbonate, Sigma-Aldrich, Darmstadt, Germany)) buffered to a pH of 7.0 with 0.165 M morpholinepropanesulfonic acid (MOPS) buffer (Sigma-Aldrich). In this study, we used the human foreskin fibroblast cell line Hs27 (ATCC CRL 1634TM) and the human endothelial cell line HUVEC (C2519A), purchased from Lonza Group AG, (Basel, Switzerland). The Hs27 cells were maintained in cell media consisting of Dulbecco’s modified Eagles medium (DMEM), (Corning, Arizona, USA) with 10% fetal bovine serum (FBS), (Corning, Port Elizabeth, South Africa), 1% penicillin/streptomycin (Sigma-Aldrich Inc., Darmstadt, Germany), and 1% L-glutamine (Corning, Arizona, USA). The human endothelial cell line was maintained in cell media consisting of Endothelial Cell Growth Medium-2 Single Quots Kit (Lonza, USA). Both cell lines were cultured in an incubator at 37 °C and 5% CO2.
(§2) Antifungal activity of the tested compounds against yeast cells was determined in 96-well plates as described in the CLSI document M27-A3 [39], with minor modifications (CLSI, 2008). […] The plates were incubated for 24 h at 37 °C. Each test was performed in triplicate. The final concentration of DMSO was ensured to be around 1% in all experiments.
(§3) For determination of minimum fungicidal concentrations (MFC), small aliquots of suspensions (around 10 μL) from each well were transferred using the pipette to YPD agar plates without inhibitors and incubated for 24 h at 37 °C.

[2] = system: Candida albicans 247; details: C. albicans 247 (fluconazole-resistant clinical isolate), RPMI 1640/MOPS pH 7.0, 24 h, 37 °C, triplicate; for MIC50: at least 50% growth inhibition vs growth control; for MIC90: lowest concentration with no visible growth
Method: as §1, §2, §3

[3] = system: Candida albicans 574; details: C. albicans 574 (fluconazole-resistant clinical isolate), RPMI 1640/MOPS pH 7.0, 24 h, 37 °C, triplicate; for MIC50: at least 50% growth inhibition vs growth control; for MIC90: lowest concentration with no visible growth
Method: as §1, §2, §3

[4] = system: Candida albicans 604; details: C. albicans 604 (fluconazole-resistant clinical isolate), RPMI 1640/MOPS pH 7.0, 24 h, 37 °C, triplicate; for MIC50: at least 50% growth inhibition vs growth control; for MIC90: lowest concentration with no visible growth
Method: as §1, §2, §3

[5] = system: Candida albicans ATCC 10231; details: C. albicans ATCC 10231, RPMI 1640/MOPS pH 7.0, 24 h, 37 °C, triplicate; for MIC50: at least 50% growth inhibition vs growth control; for MIC90: lowest concentration with no visible growth
Method: as §1, §2, §3

[6] = system: Candida albicans B3; details: C. albicans B3 (fluconazole-sensitive isolate), RPMI 1640/MOPS pH 7.0, 24 h, 37 °C, triplicate; for MIC50: at least 50% growth inhibition vs growth control; for MIC90: lowest concentration with no visible growth
Method: as §1, §2, §3

[7] = system: Candida albicans B4; details: C. albicans B4 (fluconazole-resistant, MDR1 overexpression), RPMI 1640/MOPS pH 7.0, 24 h, 37 °C, triplicate; for MIC50: at least 50% growth inhibition vs growth control; for MIC90: lowest concentration with no visible growth
Method: as §1, §2, §3

[8] = system: Candida albicans Gu4; details: C. albicans Gu4 (fluconazole-sensitive isolate), RPMI 1640/MOPS pH 7.0, 24 h, 37 °C, triplicate; for MIC50: at least 50% growth inhibition vs growth control; for MIC90: lowest concentration with no visible growth
Method: as §1, §2, §3

[9] = system: Candida albicans Gu5; details: C. albicans Gu5 (fluconazole-resistant, CDR1/2 overexpression), RPMI 1640/MOPS pH 7.0, 24 h, 37 °C, triplicate; for MIC50: at least 50% growth inhibition vs growth control; for MIC90: lowest concentration with no visible growth
Method: as §1, §2, §3

[10] = system: Candida albicans SC 5314; details: C. albicans SC 5314, 37 °C; for MIC50 / MIC90: RPMI 1640/MOPS pH 7.0, 24 h, triplicate; for MIC50: at least 50% growth inhibition vs growth control; for MIC90: lowest concentration with no visible growth; for MFC: aliquots plated on YPD agar, 24 h, lowest concentration with no colony growth
Method: as §1, §2, §3

[11] = system: Candida glabrata DSM 6128; details: C. glabrata DSM 6128, RPMI 1640/MOPS pH 7.0, 24 h, 37 °C, triplicate; for MIC50: at least 50% growth inhibition vs growth control; for MIC90: lowest concentration with no visible growth
Method: as §1, §2, §3

[12] = system: Candida krusei DSM 11226; details: C. krusei DSM 11226, 37 °C; for MIC50 / MIC90: RPMI 1640/MOPS pH 7.0, 24 h, triplicate; for MIC50: at least 50% growth inhibition vs growth control; for MIC90: lowest concentration with no visible growth
Method: as §1, §2, §3

CSCC[C@H](NC(=O)[C@H](C)NC(=O)[C@H](CCCNC(=N)N)NC(=O)[C@H](CCCCN)NC(=O)[C@H](Cc1c[nH]c2ccccc12)NC(=O)[C@H](CCC(N)=O)NC(=O)[C@H](Cc1ccccc1)NC(=O)[C@H](CS)NC(=O)CCCC(=O)OC(Cn1cncn1)(Cn1cncn1)c1ccc(F)cc1F)C(=O)N[C@@H](CCCNC(=N)N)C(=O)N[C@@H](CCCCN)C(=O)N[C@H](C(=O)N[C@@H](CCCNC(=N)N)C(N)=O)C(C)C [FLCpOH-HLopt2-NH2] (X1-CFQWKRAMRKVR-NH2)
>250 µM: MIC50 [1] | MIC90 [1] | MIC50 [2] | MIC90 [2] | MIC90 [3] | MIC50 [4] | MIC90 [4] | MIC50 [6] | MIC90 [6] | MIC50 [7] | MIC90 [7] | MIC50 [8] | MIC90 [8] | MIC50 [9] | MIC90 [9] | MIC50 [11] | MIC90 [11] | MIC50 [12] | MIC90 [12]
125 µM: MIC50 [5] | MIC90 [10]
62 µM: MIC50 [10]
250 µM: MIC50 [3] | MIC90 [5]

CSCC[C@H](NC(=O)[C@H](CCCNC(=N)N)NC(=O)[C@H](Cc1c[nH]c2ccccc12)NC(=O)[C@H](CCC(N)=O)NC(=O)[C@H](Cc1c[nH]c2ccccc12)NC(=O)[C@H](CCCNC(=N)N)NC(=O)[C@H](CCCNC(=N)N)NC(=O)[C@H](CS)NC(=O)[C@H](CCCCN)NC(=O)[C@H](Cc1ccccc1)NC(=O)CCCC(=O)OC(Cn1cncn1)(Cn1cncn1)c1ccc(F)cc1F)C(N)=O [FLCpOH-LFacinB(2-11)-NH2] (X1-FKCRRWQWRM-NH2)
125 µM: MIC50 [5] | MIC50 [6] | MIC90 [10] | MFC ([12]; aliquots plated on YPD agar, 24 h, lowest concentration with no colony growth)
250 µM: MIC90 [1] | MIC90 [2] | MIC90 [3] | MIC90 [4] | MIC90 [5] | MIC90 [6] | MIC90 [7] | MFC [10]
>250 µM: MIC50 [8] | MIC90 [8] | MIC50 [9] | MIC90 [9] | MIC50 [11] | MIC90 [11]
62 µM: MIC50 [10] | MIC90 [12]
190 µM: MIC50 [1] | MIC50 [2] | MIC50 [3] | MIC50 [4] | MIC50 [7]
31 µM: MIC50 [12]

CCCC[C@H](NC(=O)CCCC(=O)OC(Cn1cncn1)(Cn1cncn1)c1ccc(F)cc1F)C(=O)N[C@@H](Cc1ccccc1)C(=O)N[C@@H](CCCCN)C(=O)N[C@@H](CS)C(=O)N[C@@H](CCCNC(=N)N)C(=O)N[C@@H](CCCNC(=N)N)C(=O)N[C@@H](Cc1c[nH]c2ccccc12)C(=O)N[C@@H](CCC(N)=O)C(=O)N[C@@H](Cc1c[nH]c2ccccc12)C(=O)N[C@@H](CCCNC(=N)N)C(=O)N[C@@H](CCCC)C(=O)N[C@@H](CCCCN)C(=O)N[C@@H](CCCCN)C(=O)N[C@@H](CC(C)C)C(=O)NCC(N)=O [FLCpOH-LFacinB[Nle^1,11]-NH2] (X1-[Nle]FKCRRWQWR[Nle]KKLG-NH2)
23 µM: MIC50 [1] | MIC50 [10]
31 µM: MIC90 [1] | MIC90 [10] | MIC50 [12]
125 µM: MIC50 [8]
62 µM: MIC90 [2] | MIC90 [3] | MIC90 [5] | MIC90 [6] | MIC90 [12]
45 µM: MIC50 [2] | MIC50 [3] | MIC50 [4] | MIC50 [5] | MIC50 [6]
250 µM: MIC50 [7] | MIC90 [8] | MFC [10] | MIC50 [11]
90 µM: MIC90 [4]
>250 µM: MIC90 [7] | MIC50 [9] | MIC90 [9] | MIC90 [11]
